The nature of this series: activity coefficient (dimensionless); of the first substance listed, at infinite dilution; xn = mol fraction of the nth substance listed. As to conditions: Liquid, x1 = 0.
Setting [1] is: 398.15 K, Differential ebulliometry.
The mark [2] stands for this setting: 409.15 K, Differential ebulliometry.
Setting [3] is: 343.15 K, Differential ebulliometry.
Where [4] appears, read: 368.15 K, Differential ebulliometry.
The mark [5] stands for this setting: 378.15 K, Differential ebulliometry.
[6] abbreviates: 388.15 K, Differential ebulliometry.

± gives the expanded uncertainty stated by the source.

Among the data in the NIST ThermoML archive (doi:10.1016/j.fluid.2007.09.021) are activity coefficient values, retold here.

Regarding `CCCCO` [butan-1-ol] + CCc1ccccc1, the activity coefficient by setting is: (303.15 K, Chromatography) 11.8 ± 0.6; (313.15 K, Chromatography) 9.49 ± 0.5; (323.15 K, Chromatography) 7.63 ± 0.39; under setting [1], 2.55 ± 0.26; under setting [2], 2.24 ± 0.14.
Take `CCO` [ethanol] + CCc1ccccc1: the activity coefficient reads like this: (293.15 K, Chromatography) 20.1 ± 0.8; (303.15 K, Chromatography) 16.2 ± 0.7; (313.15 K, Chromatography) 13.7 ± 0.7; (323.15 K, Chromatography) 11.2 ± 0.4.
For `CCc1ccccc1` [ethylbenzene] + CCCCCCO, the activity coefficient (323.15 K, Chromatography) stood at 2.77 ± 0.11.
Take `CCc1ccccc1` [ethylbenzene] + CCCCCO: the activity coefficient (323.15 K, Chromatography) is 3.37 ± 0.12.
On the same count and under the same terms, the figure for `CCc1ccccc1` [ethylbenzene] + CCCCO is 3.84 ± 0.15.
`CCc1ccccc1` [ethylbenzene] + CCCO: the activity coefficient under setting [3] was determined as 4.48 ± 0.08; the activity coefficient (353.15 K, Differential ebulliometry) was found to be 4.21 ± 0.08; the activity coefficient (363.15 K, Differential ebulliometry) worked out at 3.98 ± 0.08; the activity coefficient (370.15 K, Differential ebulliometry) worked out at 3.8 ± 0.08.
Regarding `CCc1ccccc1` [ethylbenzene] + CCO, the activity coefficient is, setting by setting: (323.15 K, Differential ebulliometry) 6.86 ± 0.14; (333.15 K, Differential ebulliometry) 6.53 ± 0.14; under setting [3], 6.19 ± 0.12; (351.15 K, Differential ebulliometry) 5.9 ± 0.12.
Consider `CCc1ccccc1` [ethylbenzene] + CO, for which the activity coefficient reads like this: (308.15 K, Differential ebulliometry) 12.8 ± 0.2; (318.15 K, Differential ebulliometry) 12.2 ± 0.2; (328.15 K, Differential ebulliometry) 11.8 ± 0.2; (337.15 K, Differential ebulliometry) 11.4 ± 0.2.
For the compound `CCCCCCO` [hexan-1-ol] + CCc1ccccc1, the activity coefficient is 3.25 ± 0.06 under setting [4]; 2.95 ± 0.18 under setting [5]; 2.62 ± 0.06 under setting [6]; 2.43 ± 0.1 under setting [1]; 2.11 ± 0.04 under setting [2].
Take `CO` [methanol] + CCc1ccccc1: the activity coefficient is, setting by setting: (293.15 K, Chromatography) 26.2 ± 1.3; (303.15 K, Chromatography) 21.4 ± 1.1; (313.15 K, Chromatography) 18 ± 1; (323.15 K, Chromatography) 15 ± 0.8.
Take `CCCCCO` [pentan-1-ol] + CCc1ccccc1: the activity coefficient under setting [4] was 3.62 ± 0.08; the activity coefficient under setting [5] worked out at 3.19 ± 0.06; the activity coefficient under setting [6] is 2.89 ± 0.06; the activity coefficient under setting [1] came out at 2.57 ± 0.06; the activity coefficient under setting [2] was found to be 2.29 ± 0.06.
Take `CCCO` [propan-1-ol] + CCc1ccccc1: the activity coefficient was 15.8 ± 0.8 (293.15 K, Chromatography); 12.9 ± 0.7 (303.15 K, Chromatography); 10.3 ± 0.7 (313.15 K, Chromatography); 8.7 ± 0.44 (323.15 K, Chromatography).
